Data from article PMC6572064, “Discovery of 2-(1-(3-(4-Chloroxyphenyl)-3-oxo- propyl)pyrrolidine-3-yl)-1H-benzo[d]imidazole-4-carboxamide: A Potent Poly(ADP-ribose) Polymerase (PARP) Inhibitor for Treatment of Cancer” (Molecules, 2019).
Like-named read-outs stand apart in the source and are kept apart here. Blank lines part the entries; values can stand above or below the molecule they belong to.

How the values were obtained:
[1] = target: T1, PARP-1 (Homo sapiens, UniProt P09874); assay: PARP-1 inhibition assay (PARP-1 Chemiluminescent Assay Kit, BPS Bioscience); format: biochemical; settings: 10 nM compound
T1 construct: purchased BPS Bioscience 80569
Experimental: (§1) The PARP-1 and PARP-2 inhibition assays were performed in outsourcing, by a CRO company, Shanghai Medicilon Inc. (Shanghai, China). […] Briefly, PARP-1 or PARP-2 biotinylated substrate was incubated with compounds or solvent control at varying concentrations and an assay buffer containing the PARP-1 or PARP-2 enzyme.

[2] = target: T2, PARP-2 (Homo sapiens, UniProt Q9UGN5); assay: PARP-2 inhibition assay (PARP-2 Chemiluminescent Assay Kit, BPS Bioscience); format: biochemical; settings: 10 nM compound
T2 construct: purchased BPS Bioscience 80552
Experimental: as §1

[3] = tested on: MDA-MB-436 (a BRCA-1-mutated breast cancer cell line); assay: Cell proliferation assay, three-day, CellTiter-Glo, MDA-MB-436; format: cell-based; settings: Homo sapiens; for inhibition at 0.00508 µM: MDA-MB-436, MDA-MB-436, Conc. 0.00508 uM; for inhibition at 0.0152 µM: MDA-MB-436, MDA-MB-436, Conc. 0.0152 uM; for inhibition at 0.0457 µM: MDA-MB-436, MDA-MB-436, Conc. 0.0457 uM; for inhibition at 0.41 µM: MDA-MB-436, MDA-MB-436, Conc. 0.41 uM; for inhibition at 1.23 µM: MDA-MB-436, MDA-MB-436, Conc. 1.23 uM; for inhibition at 3.7 µM: MDA-MB-436, MDA-MB-436, Conc. 3.70 uM; for inhibition at 11.11 µM: MDA-MB-436, MDA-MB-436, Conc. 11.11 uM; for inhibition at 33.33 µM: MDA-MB-436, MDA-MB-436, Conc. 33.33 uM; for inhibition at 100 µM: MDA-MB-436, MDA-MB-436, Conc. 100.00 uM; for IC50: MDA-MB-436, 72 h, CellTiter-Glo, read-out: MDA-MB-436 IC50
In short: (§2)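 Luminescent ATP read-out (CellTiter-Glo, 60 min at room temperature) quantified viability after a 72 h compound exposure at 37 °C, 5% CO2. Compounds, diluted from DMSO stocks into growth medium, were added to cells plated the previous day.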

[4] = tested on: CAPAN-1 (a BRCA-2-mutated pancreatic cancer cell line); assay: Cell proliferation assay, three-day, CellTiter-Glo, CAPAN-1; format: cell-based; settings: Homo sapiens; for IC50: CAPAN-1, 72 h, CellTiter-Glo, read-out: CAPAN-1 IC50; for inhibition at 0.00508 µM: CAPAN-1, Conc. 0.00508 uM; for inhibition at 0.0152 µM: CAPAN-1, Conc. 0.0152 uM; for inhibition at 0.0457 µM: CAPAN-1, Conc. 0.0457 uM; for inhibition at […]: CAPAN-1, Conc. 0.14 uM; for inhibition at 0.41 µM: CAPAN-1, Conc. 0.41 uM; for inhibition at 1.23 µM: CAPAN-1, Conc. 1.23 uM; for inhibition at 3.7 µM: CAPAN-1, Conc. 3.70 uM; for inhibition at 11.11 µM: CAPAN-1, Conc. 11.11 uM; for inhibition at 33.33 µM: CAPAN-1, Conc. 33.33 uM; for inhibition at 100 µM: CAPAN-1, Conc. 100.00 uM
In short: as §2

[5] = supplement sheet, read-out: 10 nM inhibition% PAPR-1
[6] = read-out: PARP-1 Inhibition % (10 nM)
[7] = supplement sheet, read-out: 10 nM inhibition% PAPR-2
[8] = read-out: PARP-2 Inhibition % (10 nM)

T2 sequence (Q9UGN5 whole entry): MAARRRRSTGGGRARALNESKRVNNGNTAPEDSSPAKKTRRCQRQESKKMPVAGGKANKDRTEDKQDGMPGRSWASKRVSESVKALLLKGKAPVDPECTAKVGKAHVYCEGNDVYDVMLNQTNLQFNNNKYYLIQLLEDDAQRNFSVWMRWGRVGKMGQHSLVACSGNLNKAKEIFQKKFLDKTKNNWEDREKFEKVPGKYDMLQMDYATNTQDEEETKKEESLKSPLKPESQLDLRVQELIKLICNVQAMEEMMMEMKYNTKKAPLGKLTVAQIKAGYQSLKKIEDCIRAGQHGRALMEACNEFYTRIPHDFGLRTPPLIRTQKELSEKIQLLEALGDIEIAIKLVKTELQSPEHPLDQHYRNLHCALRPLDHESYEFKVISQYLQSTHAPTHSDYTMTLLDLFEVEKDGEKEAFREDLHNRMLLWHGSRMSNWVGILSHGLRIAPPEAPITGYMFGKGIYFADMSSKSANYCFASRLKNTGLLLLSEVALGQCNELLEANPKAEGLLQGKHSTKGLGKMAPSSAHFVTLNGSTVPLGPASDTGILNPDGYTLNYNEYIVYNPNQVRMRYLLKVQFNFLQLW
T1 sequence (P09874 whole entry): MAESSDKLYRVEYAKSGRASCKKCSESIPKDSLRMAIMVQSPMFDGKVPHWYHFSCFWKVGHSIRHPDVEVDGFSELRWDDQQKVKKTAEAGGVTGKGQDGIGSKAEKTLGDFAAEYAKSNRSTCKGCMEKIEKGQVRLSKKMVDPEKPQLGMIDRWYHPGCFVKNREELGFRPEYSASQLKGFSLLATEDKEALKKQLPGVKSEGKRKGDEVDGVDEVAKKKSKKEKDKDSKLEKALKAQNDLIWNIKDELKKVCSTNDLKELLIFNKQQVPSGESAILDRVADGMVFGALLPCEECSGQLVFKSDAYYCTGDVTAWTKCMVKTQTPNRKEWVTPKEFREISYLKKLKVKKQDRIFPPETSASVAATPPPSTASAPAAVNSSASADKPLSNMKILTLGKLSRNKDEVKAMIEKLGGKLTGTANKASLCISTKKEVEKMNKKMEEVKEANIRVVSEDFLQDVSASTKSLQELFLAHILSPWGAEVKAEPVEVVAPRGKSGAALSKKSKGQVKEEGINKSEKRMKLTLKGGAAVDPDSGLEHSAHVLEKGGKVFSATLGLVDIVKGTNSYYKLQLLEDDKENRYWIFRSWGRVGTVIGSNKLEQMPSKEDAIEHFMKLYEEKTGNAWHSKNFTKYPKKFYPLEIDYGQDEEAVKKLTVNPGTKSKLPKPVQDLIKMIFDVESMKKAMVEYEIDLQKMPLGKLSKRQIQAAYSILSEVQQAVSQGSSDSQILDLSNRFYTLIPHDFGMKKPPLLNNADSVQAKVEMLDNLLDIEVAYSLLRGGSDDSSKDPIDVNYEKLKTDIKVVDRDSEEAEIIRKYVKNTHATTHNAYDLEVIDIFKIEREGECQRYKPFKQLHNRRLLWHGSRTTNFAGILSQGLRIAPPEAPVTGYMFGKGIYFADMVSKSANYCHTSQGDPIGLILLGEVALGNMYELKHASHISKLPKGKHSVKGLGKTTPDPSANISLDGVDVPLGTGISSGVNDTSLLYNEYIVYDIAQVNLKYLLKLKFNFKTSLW

inhibition at 0.01 µM [1, 5]: 24.8% | inhibition at 0.01 µM [1, 6]: 24.8% | inhibition at 0.01 µM [2, 7]: 32.8% | inhibition at 0.01 µM [2, 8]: 32.8% | IC50 [3]: > 100 µM | IC50 [4]: > 100 µM
Compound: NCCN1CCC(c2nc3c(C(N)=O)cccc3[nH]2)C1 (stereo not shown) [Compound 5cm, 2-(1-(2-Aminoethyl)pyrrolidin-3-yl)-1H-benzo[d]imidazole-4-carboxamide]
inhibition at 0.00508 µM ([3]; replicate 1, read-out: Inh % 1): -8.5% | inhibition at 0.00508 µM ([3]; replicate 2, read-out: Inh % 2): -9.3% | inhibition at 0.0152 µM ([3]; replicate 1, read-out: Inh % 1): 1.1% | inhibition at 0.0152 µM ([3]; replicate 2, read-out: Inh % 2): -4.9% | inhibition at 0.0457 µM ([3]; replicate 1, read-out: Inh % 1): -11.2% | inhibition at 0.0457 µM ([3]; replicate 2, read-out: Inh % 2): -10.5% | inhibition at 0.41 µM ([3]; replicate 1, read-out: Inh % 1): -6.2% | inhibition at 0.41 µM ([3]; replicate 2, read-out: Inh % 2): -16.8% | inhibition at 1.23 µM ([3]; replicate 1, read-out: Inh % 1): -5.3% | inhibition at 1.23 µM ([3]; replicate 2, read-out: Inh % 2): -11.1% | inhibition at 3.7 µM ([3]; replicate 1, read-out: Inh % 1): -4.9% | inhibition at 3.7 µM ([3]; replicate 2, read-out: Inh % 2): -6.8% | inhibition at 11.11 µM ([3]; replicate 1, read-out: Inh % 1): -3.6% | inhibition at 11.11 µM ([3]; replicate 2, read-out: Inh % 2): -6.5% | inhibition at 33.33 µM ([3]; replicate 1, read-out: Inh % 1): 3% | inhibition at 33.33 µM ([3]; replicate 2, read-out: Inh % 2): -4.3% | inhibition at 100 µM ([3]; replicate 1, read-out: Inh % 1): 16.7% | inhibition at 100 µM ([3]; replicate 2, read-out: Inh % 2): 7.9% | inhibition at 0.00508 µM ([4]; replicate 1, read-out: Inh % 1): -3.2% | inhibition at 0.00508 µM ([4]; replicate 2, read-out: Inh % 2): 4.5% | inhibition at 0.0152 µM ([4]; replicate 1, read-out: Inh % 1): -3% | inhibition at 0.0152 µM ([4]; replicate 2, read-out: Inh % 2): -13.2% | inhibition at 0.0457 µM ([4]; replicate 1, read-out: Inh % 1): -3.1% | inhibition at 0.0457 µM ([4]; replicate 2, read-out: Inh % 2): -9.3% | inhibition at […] ([4]; replicate 1, read-out: Inh % 1): 0.182% | inhibition at […] ([4]; replicate 2, read-out: Inh % 2): -8.2% | inhibition at 0.41 µM ([4]; replicate 1, read-out: Inh % 1): 4% | inhibition at 0.41 µM ([4]; replicate 2, read-out: Inh % 2): -2.2% | inhibition at 1.23 µM ([4]; replicate 1, read-out: Inh % 1): -2.5% | inhibition at 1.23 µM ([4]; replicate 2, read-out: Inh % 2): -0.9% | inhibition at 3.7 µM ([4]; replicate 1, read-out: Inh % 1): 0.8% | inhibition at 3.7 µM ([4]; replicate 2, read-out: Inh % 2): 2.3% | inhibition at 11.11 µM ([4]; replicate 1, read-out: Inh % 1): -3.4% | inhibition at 11.11 µM ([4]; replicate 2, read-out: Inh % 2): 4.2% | inhibition at 33.33 µM ([4]; replicate 1, read-out: Inh % 1): -1.1% | inhibition at 33.33 µM ([4]; replicate 2, read-out: Inh % 2): -7.7% | inhibition at 100 µM ([4]; replicate 1, read-out: Inh % 1): 0.459% | inhibition at 100 µM ([4]; replicate 2, read-out: Inh % 2): -6%

inhibition at 0.01 µM [1, 5]: 19.4% | inhibition at 0.01 µM [1, 6]: 19.4% | inhibition at 0.01 µM [2, 7]: 39.1% | inhibition at 0.01 µM [2, 8]: 39.1% | IC50 [3]: > 100 µM | IC50 [4]: > 100 µM
Compound: NC(=O)c1cccc2[nH]c(C3CCN(CCCNC(=O)c4ccccc4)C3)nc12 (stereo not shown) [Compound 5cn, 2-(1-(3-Benzamidopropyl)pyrrolidin-3-yl)-1H-benzo[d]imidazole-4-carboxamide]
inhibition at 0.00508 µM ([3]; replicate 1, read-out: Inh % 1): 1.6% | inhibition at 0.00508 µM ([3]; replicate 2, read-out: Inh % 2): -5.1% | inhibition at 0.0152 µM ([3]; replicate 1, read-out: Inh % 1): -1.4% | inhibition at 0.0152 µM ([3]; replicate 2, read-out: Inh % 2): -3.5% | inhibition at 0.0457 µM ([3]; replicate 1, read-out: Inh % 1): -9.2% | inhibition at 0.0457 µM ([3]; replicate 2, read-out: Inh % 2): -11% | inhibition at 0.41 µM ([3]; replicate 1, read-out: Inh % 1): -8.3% | inhibition at 0.41 µM ([3]; replicate 2, read-out: Inh % 2): -13.4% | inhibition at 1.23 µM ([3]; replicate 1, read-out: Inh % 1): -3% | inhibition at 1.23 µM ([3]; replicate 2, read-out: Inh % 2): -5.3% | inhibition at 3.7 µM ([3]; replicate 1, read-out: Inh % 1): -5.2% | inhibition at 3.7 µM ([3]; replicate 2, read-out: Inh % 2): -8.2% | inhibition at 11.11 µM ([3]; replicate 1, read-out: Inh % 1): -2.1% | inhibition at 11.11 µM ([3]; replicate 2, read-out: Inh % 2): -9.2% | inhibition at 33.33 µM ([3]; replicate 1, read-out: Inh % 1): 12.1% | inhibition at 33.33 µM ([3]; replicate 2, read-out: Inh % 2): 1.5% | inhibition at 100 µM ([3]; replicate 1, read-out: Inh % 1): 21.7% | inhibition at 100 µM ([3]; replicate 2, read-out: Inh % 2): 20.8% | inhibition at 0.00508 µM ([4]; replicate 1, read-out: Inh % 1): 9.5% | inhibition at 0.00508 µM ([4]; replicate 2, read-out: Inh % 2): -3.8% | inhibition at 0.0152 µM ([4]; replicate 1, read-out: Inh % 1): -9.3% | inhibition at 0.0152 µM ([4]; replicate 2, read-out: Inh % 2): -9.4% | inhibition at 0.0457 µM ([4]; replicate 1, read-out: Inh % 1): 1% | inhibition at 0.0457 µM ([4]; replicate 2, read-out: Inh % 2): 6.5% | inhibition at […] ([4]; replicate 1, read-out: Inh % 1): 4.6% | inhibition at […] ([4]; replicate 2, read-out: Inh % 2): -10% | inhibition at 0.41 µM ([4]; replicate 1, read-out: Inh % 1): -2.8% | inhibition at 0.41 µM ([4]; replicate 2, read-out: Inh % 2): -4.1% | inhibition at 1.23 µM ([4]; replicate 1, read-out: Inh % 1): 3.1% | inhibition at 1.23 µM ([4]; replicate 2, read-out: Inh % 2): -3.2% | inhibition at 3.7 µM ([4]; replicate 1, read-out: Inh % 1): 5.2% | inhibition at 3.7 µM ([4]; replicate 2, read-out: Inh % 2): -3% | inhibition at 11.11 µM ([4]; replicate 1, read-out: Inh % 1): 2.8% | inhibition at 11.11 µM ([4]; replicate 2, read-out: Inh % 2): -7.6% | inhibition at 33.33 µM ([4]; replicate 1, read-out: Inh % 1): 5.2% | inhibition at 33.33 µM ([4]; replicate 2, read-out: Inh % 2): 2% | inhibition at 100 µM ([4]; replicate 1, read-out: Inh % 1): 27.8% | inhibition at 100 µM ([4]; replicate 2, read-out: Inh % 2): 14.3%
